# Values joined by “and” are separate entries in the source; they are usually repeats but may differ in a detail not shown here. Identical values can stand only once.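 Dose response: 5 concentrations. Exposure: 48 h. Format: 96-well plates. Endpoint: linear interpolation; highest concentration if not reached. GI50 is the concentration that inhibits growth by half. TGI: concentration producing complete growth inhibition.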
# Assays:
# Assay in all cases: DTP human tumour cell line panel, 48 h
# SK-MEL-5 melanoma = tested on: SK-MEL-5 melanoma
# KM12 colon = tested on: KM12 colon
# COLO 205 colon = tested on: COLO 205 colon
# HOP-62 NSCLC = tested on: HOP-62 NSCLC
# NCI-H23 lung = tested on: NCI-H23 lung
# SK-OV-3 ovarian = tested on: SK-OV-3 ovarian
# SF-539 CNS = tested on: SF-539 CNS
# OVCAR-4 ovarian = tested on: OVCAR-4 ovarian
# MOLT-4 leukemia = tested on: MOLT-4 leukemia
# TK-10 renal = tested on: TK-10 renal
Compound,GI50 (SK-MEL-5 melanoma),TGI (SK-MEL-5 melanoma),GI50 (KM12 colon),TGI (KM12 colon),GI50 (COLO 205 colon),TGI (COLO 205 colon),GI50 (HOP-62 NSCLC),TGI (HOP-62 NSCLC),GI50 (NCI-H23 lung),TGI (NCI-H23 lung),GI50 (SK-OV-3 ovarian),TGI (SK-OV-3 ovarian),GI50 (SF-539 CNS),TGI (SF-539 CNS),GI50 (OVCAR-4 ovarian),TGI (OVCAR-4 ovarian),GI50 (MOLT-4 leukemia),TGI (MOLT-4 leukemia),GI50 (TK-10 renal),TGI (TK-10 renal)
CN(C)C(=O)OCc1nc2c(N3CCOCC3)nc(-c3ccccc3)nc2n1C,1420 nM,2.73 µM,1540 nM,3.32 µM,1320 nM,2.97 µM,1720 nM,4.46 µM,1620 nM,3.35 µM,4.06 µM,13.5 µM,1400 nM,2.72 µM,790 nM,2.16 µM,497 nM,3.14 µM,1.46 µM,2.81 µM
Cc1cc(-c2nnc(/C=C/c3ccc4c(c3)OCO4)o2)n[nH]1,13000 nM,39 µM,2150 nM,> 50 µM,15400 nM,> 50 µM,17500 nM,> 50 µM,11900 nM,> 50 µM,21.1 µM,> 50 µM,12500 nM,> 50 µM,23700 nM,> 50 µM,3390 nM,39.5 µM,22.3 µM,> 50 µM
C/C(=N\NC(N)=S)c1ccc(C)c(C)c1,,> 100 µM,,> 100 µM,,> 100 µM,,> 100 µM,,> 100 µM,,> 100 µM,,> 100 µM,,> 100 µM,,90.2 µM,,> 100 µM
C[C@]12CC[C@@H]3c4ccc(O)cc4CC[C@H]3[C@@H]1CC[C@@H]2NS(=O)(=O)c1ccc(Br)cc1,1760 nM,3.22 µM,1970 nM,3.89 µM,2120 nM,4.04 µM,2770 nM,6.14 µM,3440 nM,15.5 µM,4.53 µM,13.6 µM,2040 nM,3.92 µM,3010 nM,12.4 µM,3260 nM,28.7 µM,3.84 µM,12.2 µM
C=CC(COC(=O)C(C)(C)OC(C)=O)c1ccc(OC(=O)C(C)C)c(OC)c1 (stereo not given),,27.8 µM,,15.5 µM,,7.05 µM,,23.5 µM,,39.3 µM,,30.8 µM,,27.5 µM,,22.4 µM,,20.6 µM,,24.8 µM
O=C1Nc2cc(-c3cccc(O)c3)ccc2/C1=C/c1ccc[nH]1,1600 nM,3.32 µM,225 nM,2.52 µM,4370 nM,28.6 µM,2300 nM,8.55 µM,182 nM,4.56 µM,0.655 µM,5.22 µM,1120 nM,2.49 µM,305 nM,16.2 µM,1070 nM,33.6 µM,0.833 µM,9.19 µM
O=[P+](O)c1ccccn1,,> 100 µM,,> 100 µM,,> 100 µM,,> 100 µM,,> 100 µM,,> 100 µM,,> 100 µM,,> 100 µM,,> 100 µM,,> 100 µM
Cc1ccc(S(=O)(=O)OCC#CCOS(=O)(=O)c2ccc(C)cc2)cc1,3690 nM,9.96 µM,2080 nM,4.6 µM,2420 nM,5.72 µM,2350 nM,5.69 µM,1990 nM,5.04 µM,6.51 µM,14.9 µM,2500 nM,7.01 µM,4810 nM,13.6 µM,2390 nM,7.81 µM,2.37 µM,6.27 µM
CN(C)CCC(/C=C/c1ccccc1)=N\Nc1ccc(Cl)c(Cl)c1,,8.96 µM,,4.41 µM,,7.23 µM,,13.3 µM,,8.93 µM,,15.5 µM,,4.17 µM,,10.8 µM,,6.63 µM,,6.18 µM
NC(=S)N=Nc1c(O)[nH]c2c(Cl)cc(Cl)cc12,,28.2 µM,,42.2 µM,,41.8 µM,,49.4 µM,,> 100 µM,,> 100 µM,,34.6 µM,,> 100 µM,,67.8 µM,,> 100 µM
CS(=O)(=O)Nc1cc(-c2ccc3ncnc(Nc4ccc(F)c(Cl)c4)c3c2)cnc1Cl,410 nM,1.69 µM,1240 nM and 1710 nM,3.39 µM and 8.13 µM,562 nM and 1060 nM,2.19 µM and 4.53 µM,295 nM and 1120 nM,9.01 µM and 27.1 µM,484 nM and 570 nM,14.7 µM and 10.6 µM,0.255 µM and 0.317 µM,1.34 µM and 2.71 µM,431 nM and 541 nM,2.52 µM and 3.33 µM,1220 nM and 1470 nM,10.8 µM and 10.4 µM,311 nM and 284 nM,1.81 µM and 2.02 µM,0.261 µM,2.28 µM
O=C(Nc1cccc(-n2cc(-c3ccncc3)c(-c3ccc(O)c(Cl)c3)n2)c1)c1ccc2c(c1)OCCO2,3950 nM,> 100 µM,4830 nM,> 100 µM,89200 nM,> 100 µM,> 100000 nM,> 100 µM,> 100000 nM,> 100 µM,> 100 µM,> 100 µM,6630 nM,> 100 µM,> 100000 nM,> 100 µM,4880 nM,> 100 µM,> 100 µM,> 100 µM
Cc1cc(N(CCC#N)CCC#N)ccc1N=Nc1cc(Cl)ccc1Cl,,30.3 µM,,30 µM,,4.97 µM,,35.3 µM,,28.1 µM,,29.9 µM,,19.4 µM,,10.3 µM,,34.9 µM,,23.8 µM
O=C(NCCc1ccccc1)Nc1ccc2cc3ccc(NC(=O)NCCc4ccccc4)cc3nc2c1,1500 nM,3 µM,1640 nM,4.42 µM,318 nM,1.19 µM,1550 nM,3.75 µM,857 nM,2.48 µM,1.51 µM,3 µM,1330 nM,2.7 µM,1480 nM,3.48 µM,258 nM,0.697 µM,4.98 µM,24.8 µM
CC1=C(/C=C/C(=O)CC(=O)/C=C/C2=C(C)CCCC2(C)C)C(C)(C)CCC1,22100 nM,91.8 µM,32900 nM,> 100 µM,35900 nM,> 100 µM,32300 nM,> 100 µM,24900 nM,> 100 µM,40.6 µM,> 100 µM,26000 nM,> 100 µM,21700 nM,> 100 µM,6510 nM,32.6 µM,28.1 µM,> 100 µM

# — PubChem BioAssay (NCI)
